According to PubChem BioAssay (NCI):
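1) Cells in 96-well plates. 2) Compound, 48 h, 5 concentrations. 3) Linear interpolation between surrounding doses. 4) Unreached endpoint = highest concentration. At the GI50, growth is halved. At the TGI there is no net growth.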

Experiments:
Test in all cases: DTP human tumour cell line panel, 48 h
UACC-257 melanoma = test system: UACC-257 melanoma
OVCAR-4 ovarian = test system: OVCAR-4 ovarian
HCT-116 colon = test system: HCT-116 colon
SK-MEL-2 melanoma = test system: SK-MEL-2 melanoma
RPMI-8226 leukemia = test system: RPMI-8226 leukemia
SK-MEL-28 melanoma = test system: SK-MEL-28 melanoma
OVCAR-8 ovarian = test system: OVCAR-8 ovarian
SF-268 CNS = test system: SF-268 CNS
K-562 leukemia = test system: K-562 leukemia
SR leukemia = test system: SR leukemia

Cc1cc(S(=O)(=O)NC#N)c(S/C(=N\Nc2ccc([N+](=O)[O-])cc2)c2ccc(Cl)cc2)cc1Cl
GI50 (UACC-257 melanoma): > 100 µM | TGI (UACC-257 melanoma): > 100 µM | GI50 (OVCAR-4 ovarian): 20.9 µM | TGI (OVCAR-4 ovarian): 75 µM | GI50 (HCT-116 colon): 11.2 µM | TGI (HCT-116 colon): 26 µM | GI50 (SK-MEL-2 melanoma): > 100 µM | TGI (SK-MEL-2 melanoma): > 100 µM | GI50 (RPMI-8226 leukemia): 30.5 µM | TGI (RPMI-8226 leukemia): > 100 µM | GI50 (SK-MEL-28 melanoma): 31.2 µM | TGI (SK-MEL-28 melanoma): > 100 µM | GI50 (OVCAR-8 ovarian): 31.7 µM | TGI (OVCAR-8 ovarian): > 100 µM | GI50 (SF-268 CNS): 26 µM | TGI (SF-268 CNS): > 100 µM | GI50 (K-562 leukemia): 35.3 µM | TGI (K-562 leukemia): 80.3 µM

Cc1cc(Cl)ccc1Nc1nc(C(F)(F)F)ccc1C(=O)N/N=C/c1ccc([N+](=O)[O-])cc1
GI50 (UACC-257 melanoma): 1.38 µM | TGI (UACC-257 melanoma): 5.11 µM | GI50 (OVCAR-4 ovarian): 0.602 µM | TGI (OVCAR-4 ovarian): > 20 µM | GI50 (HCT-116 colon): 1.85 µM | TGI (HCT-116 colon): > 23.9 µM | GI50 (SK-MEL-2 melanoma): 1.92 µM | TGI (SK-MEL-2 melanoma): 8.5 µM | GI50 (RPMI-8226 leukemia): 0.435 µM | TGI (RPMI-8226 leukemia): 1.77 µM | GI50 (SK-MEL-28 melanoma): 1.22 µM | GI50 (OVCAR-8 ovarian): 1.15 µM | GI50 (SF-268 CNS): 0.86 µM | TGI (SF-268 CNS): 5.45 µM | GI50 (K-562 leukemia): 1.43 µM | TGI (K-562 leukemia): > 24.8 µM

Cc1ccc(-c2cc(-c3ccccc3)c(C#N)c(=O)n2C2OC(CO)C(O)C(O)C2O)cc1 (stereo unspecified)
TGI (UACC-257 melanoma): > 100 µM | TGI (OVCAR-4 ovarian): > 100 µM | TGI (HCT-116 colon): > 100 µM | TGI (RPMI-8226 leukemia): > 100 µM | TGI (SK-MEL-28 melanoma): > 100 µM | TGI (OVCAR-8 ovarian): > 100 µM | TGI (SF-268 CNS): > 100 µM | TGI (K-562 leukemia): > 100 µM

CC[O-].CC[O-].O=S(=O)([O-])c1ccc([O-])c2ncccc12.O=S(=O)([O-])c1ccc([O-])c2ncccc12.[Ti+4]
GI50 (UACC-257 melanoma): 43.7 µM | TGI (UACC-257 melanoma): > 100 µM | GI50 (OVCAR-4 ovarian): 52.9 µM | TGI (OVCAR-4 ovarian): > 100 µM | GI50 (HCT-116 colon): 41.1 µM | TGI (HCT-116 colon): > 100 µM | GI50 (SK-MEL-2 melanoma): > 100 µM | TGI (SK-MEL-2 melanoma): > 100 µM | GI50 (RPMI-8226 leukemia): > 100 µM | TGI (RPMI-8226 leukemia): > 100 µM | GI50 (SK-MEL-28 melanoma): > 100 µM | TGI (SK-MEL-28 melanoma): > 100 µM | GI50 (OVCAR-8 ovarian): 74.5 µM | TGI (OVCAR-8 ovarian): > 100 µM | GI50 (SF-268 CNS): 42.1 µM | TGI (SF-268 CNS): > 100 µM | GI50 (K-562 leukemia): > 100 µM | TGI (K-562 leukemia): > 100 µM

COC(=O)c1nc(Cl)nc(Cl)c1Cl
TGI (OVCAR-4 ovarian): 41 µM | TGI (SR leukemia): 58.7 µM | TGI (HCT-116 colon): 33.2 µM | TGI (RPMI-8226 leukemia): 63.6 µM | TGI (SK-MEL-28 melanoma): 56.9 µM | TGI (OVCAR-8 ovarian): 54.5 µM | TGI (SF-268 CNS): > 100 µM | TGI (K-562 leukemia): 31.9 µM

OC1(c2ccccc2)OC(C#Cc2ccccc2)(c2ccccc2)c2ccccc21 (stereo unspecified)
TGI (UACC-257 melanoma): 20.9 µM | TGI (OVCAR-4 ovarian): 5.85 µM | TGI (SR leukemia): 9.39 µM | TGI (HCT-116 colon): 3.07 µM | TGI (RPMI-8226 leukemia): 6.62 µM | TGI (OVCAR-8 ovarian): 5.87 µM | TGI (SF-268 CNS): 15.2 µM | TGI (K-562 leukemia): > 100 µM
